Data from US20070054916A1, “Aryl nitrogen-containing bicyclic compounds and methods of use” (Amgen Inc., priority 2004, published 2007).

Columns and labels:
[1] = molecular target: LCK KD GST (225-509) (Homo sapiens, UniProt P06239); test: LCK Homogenous Time Resolved Flourescent (HTRF) kinase assay; conditions: average IC50 value in the human HTRF assay for the inhibition of the Lck kinase enzyme
[2] = test system: production of TNF by monocytes activated with bacterial lipopolysaccharide (LPS); test: Lipopolysaccharide-activated monocyte TNF production assay; type: cell-based; conditions: Homo sapiens, read-out: IC50 values in the monocyte assay (LPS induced TNF release)
How it was run: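 Adherent human PBMC-derived monocytes (~70%) in DMEM/2% FCS were pre-incubated 60 min with nine two-fold compound dilutions, then stimulated with E. coli K532 LPS (added as 30 ng/ml solution) for 4 h at 37 °C. Supernatant TNF-α was measured by sandwich ELISA. IC50 was taken from a polynomial fit of TNF versus compound concentration.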

Chain of LCK KD GST (225-509) (P06239 225-509): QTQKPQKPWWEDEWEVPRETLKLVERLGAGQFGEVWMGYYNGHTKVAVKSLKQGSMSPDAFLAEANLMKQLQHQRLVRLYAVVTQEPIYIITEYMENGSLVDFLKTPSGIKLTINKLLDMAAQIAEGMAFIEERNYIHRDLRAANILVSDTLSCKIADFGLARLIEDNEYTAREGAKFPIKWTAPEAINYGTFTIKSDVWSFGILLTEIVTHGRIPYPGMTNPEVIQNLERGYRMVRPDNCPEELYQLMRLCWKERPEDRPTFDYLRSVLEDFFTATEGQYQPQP

Row | IC50 [1] [nM] | Structure (SMILES) | IC50 [2] [nM]
1 | ≤ 1000 | CC1(C)CC(=O)Nc2cc(NC(=O)c3cc(-c4ccc5nc(N)ncc5c4)ccc3F)ccc21 [Example 412] | 
2 | ≤ 1000 | CC(C)c1cccc(C(=O)Nc2cc(-c3ccc4nc(N)ncc4c3)cc(C(F)(F)F)c2)c1 [Example 512, N-(3-(2-amino-6-quinazolinyl)-5-(trifluoromethyl)phenyl)-3-(1-methylethyl)benzamide] | 
3 | ≤ 1000 | COc1c(Br)cc(-c2ccc3nc(N)ncc3c2)cc1C(=O)Nc1cc(C(F)(F)F)ccc1N(C)CCCN(C)C [Example 103, 5-(2-amino-6-quinazolinyl)-3-bromo-N-(2-((3-(dimethylamino)propyl)(methyl)amino)-5-(trifluoromethyl)phenyl)-2-(methyloxy)benzamide] | 
4 | ≤ 1000 | Cc1ccc(C(=O)Nc2cc(C(F)(F)F)ccc2N(C)C2CCN(C)C2)cc1-c1ccc2nc(N)ncc2c1 (stereo in doubt) [Example 238, 3-(2-amino-6-quinazolinyl)-4-methyl-N-(2-(methyl((3S)-1-methyl-3-pyrrolidinyl)amino-5-(trifluoromethyl)phenyl)berizamide] | 
5 | ≤ 1000 | Nc1ncc2cc(-c3cccc(C(=O)Nc4cccc(OC(F)(F)F)c4)c3)ccc2n1 [Example 98, 3-(2-amino-6-quinazolinyl)-N-(3-((trifluoromethyl)oxy)phenyl)benzamide] | 
6 | ≤ 1000 | Nc1ncc2cc(-c3ccc(C(=O)Nc4cccc(C(F)(F)F)c4)cc3)ccc2n1 [Example 15, 4-(2-amino-6-quinazolinyl)-N-(3-(trifluoromethyl)phenyl)benzamide] | 
7 | ≤ 1000 | Cc1ccc(C(=O)Nc2cc(Cl)ccc2N(C)CCCN(C)C)cc1-c1ccc2nc(N)ncc2c1 [Example 95, 3-(2-amino-6-quinazolinyl)-N-(5-chloro-2-((3-(dimethylamino)propyl)(methyl)amino)phenyl)-4-methylbenzamide] | 
8 | ≤ 1000 | CN(C)CCCN(C)c1ccc(C(F)(F)F)cc1NC(=O)c1cc(-c2ccc3nc(N)ncc3c2)cc2c1OCC2 [Example 96, 5-(2-amino-6-quinazolinyl)-N-(2-((3-(dimethylamino)propyl)(methyl)amino)-5-(trifluoromethyl)phenyl)-2,3-dihydro-1-benzofuran-7-carboxamide] | 
9 | ≤ 1000 | Nc1ncnc2ccc(-c3cccc(NC(=O)c4cccc(C(F)(F)F)c4)c3)cc12 [Example 513, N-(3-(4-amino-6-quinazolinyl)phenyl)-3-(trifluoromethyl)benzamide] | 
10 | ≤ 25000 | Cc1ccc(C(=O)NCCN(C)C)cc1-c1ccc2nc(N)ncc2c1 [Example 134, 3-(2-amino-6-quinazolinyl)-N-(2-(dimethylamino)ethyl)-4-methylbenzamide] | 

The remaining lines, values behind:

Row | Structure (SMILES) | IC50 [1] [nM] | IC50 [2] [nM]
11 | Cc1ccc(C(=O)NC2CC2)cc1-c1ccc2nc(NCCN(C)C)ncc2c1 [Example 44] | ≤ 25000 | 
12 | COc1c(C(=O)Nc2cc(C(F)(F)F)ccc2N(C)CCCN(C)C)cc(-c2ccc3nc(N)ncc3c2)c(OC)c1OC [Example 110, 5-(2-amino-6-quinazolinyl)-N-(2-((3-(dimethylamino)propyl)methyl)amino-5-(trifluoromethyl)phenyl)-2,3,4-tris(methyloxy)benzamide] | ≤ 1000 | ≤ 25000
13 | Cc1ccc(C(=O)Nc2cc(C(F)(F)F)ccc2CN2CCN(C)CC2)cc1-c1ccc2ncnc(N)c2c1 [Example 383, 3-(4-amino-6-quinazolinyl)-4-methyl-N-(2-((4-methyl-1-piperazinyl)methyl)-5-(trifluoromethyl)phenyl)benzamide] | ≤ 1000 | 
14 | COc1c(C(=O)Nc2cccc(C(F)(F)F)c2)cc(-c2ccc3nc(N)ncc3c2)c(OC)c1OC [Example 109, 5-(2-amino-6-quinazolinyl)-2,3,4-tris(methyloxy)-(trifluoromethyl)-N-(3-phenyl)benzamide] | ≤ 1000 | ≤ 25000
15 | CN(C)c1cccc2c(S(=O)(=O)Nc3cccc(-c4ccc5nc(N)ncc5c4)c3)cccc12 [Example 55, N-(3-(2-amino-6-quinazolinyl)phenyl)-5-(dimethylamino)-1-naphthalenesulfonamide] | ≤ 1000 | ≤ 25000
16 | CNc1ncc2cc(-c3cc(C(=O)Nc4ccc(OC)c(C(F)(F)F)c4)ccc3C)cnc2n1 [Example 184, 4-methyl-3-(2-(methylamino)pyrido [2,3-d]pyrimidin-6-yl)-N-(4-(methyloxy)-3-(trifluoromethyl)phenyl)benzamide] | ≤ 1000 | ≤ 25000
17 | CNc1ncc2cc(-c3cccc(C(=O)Nc4cccc(OC(F)(F)F)c4)c3C)cnc2n1 [Example 183, 2-methyl-3-(2-(methylamino)pyrido [2,3-d]pyrimidin-6-yl)-N-(3-((trifluoromethyl)oxy)phenyl)benzamide] | ≤ 1000 | ≤ 25000
18 | CNc1ncc2cc(-c3cc(C(=O)Nc4ccc(F)c(C(F)(F)F)c4)ccc3C)ccc2n1 [Example 16, N-(4-fluoro-3-(trifluoromethyl)phenyl)-4-methyl-3-(2-(methylamino)-6-quinazolinyl)benzamide] | ≤ 1000 | ≤ 25000
19 | Cc1ccc(C(=O)NC2CC2)cc1-c1ccc2nc(NCCN3CCCCC3)ncc2c1 [Example 47, N-cyclopropyl-4-methyl-3-(2-((2-(1-piperidinyl)ethyl)amino)-6-quinazolinyl) benzamide] | ≤ 1000 | 
20 | Cc1ccc(C(=O)Nc2cc(C(F)(F)F)ccc2N(C)C)cc1-c1ccc2ncnc(N)c2c1 [Example 385, 3-(4-amino-6-quinazolinyl)-N-(2-(dimethylamino)-5-(trifluoromethyl)phenyl)-4-methylbenzamide] | ≤ 1000 | 
21 | Cc1ccc(C(=O)Nc2cccc(NC(=O)CN3CCOCC3)c2C)cc1-c1ccc2nc(N)ncc2c1 [Example 56, 3-(2-Amino-6-quinazolinyl)-4-methyl-N-(2-methyl-3-((4-morpholinylacetyl)amino)phenyl)benzamide] | ≤ 1000 | ≤ 25000
22 | Cc1ccc(C(=O)NC2CC2)cc1-c1ccc2nc(NC3CCN(C)CC3)ncc2c1 [Example 45, N-cyclopropyl-4-methyl-3-(2-((1-methyl-4-piperidinyl)amino)-6-quinazolinyl) benzamide] | ≤ 25000 | 
23 | Cc1c(NC(=O)c2ccc(Cl)c(-c3ccc4nc(N)ncc4c3)c2)cccc1C(F)(F)F [Example 141, 3-(2-amino-6-quinazolinyl)-4-chloro-N-(2-methyl-3-(trifluoromethyl)phenyl)benzamide] |  | ≤ 25000
